Measured values taken from patent publication US20260256873A1, “MODIFIED CAVEOLIN-1 PEPTIDE FORMULATIONS AND METHODS OF MANUFACTURING AND USE THEREOF” (LUNG THERAPEUTICS, INC., priority 2022, published 2026).
“And” between values parts separate entries of the source, which are not always exact repeats. Identical values can stand only once. Like-named read-outs stand apart in the source and are kept apart here. Where a SMILES comes first, the peptide text is derived from it. [ ]: non-standard residue; d: D form.

How the values were obtained:
[1] = Plasma pharmacokinetics of the APi2355 SAIB formulation over 42 days after single-dose subcutaneous administration; type: in vivo, male Sprague Dawley rats; settings: for Tmax: sc
Experimental: (§1) The plasma pharmacokinetics of the Cav-1 peptide (APi2355) SAIB formulation prepared according to Example 1 (5.66% w/w APi2355 75.47% w/w SAIB and 18.87% w/w NMP to provide 7% w/w APi2355 to 93% w/w SAIB) were assessed over 42 days after a single-dose subcutaneous administration to male Sprague Dawley rats. The rats (n=6) received one of three batches of the APi2355 SAIB formulations prepared according to Example 1 at a dose of 2.0 mg/kg of APi2355 in 0.033 mL/kg (concentration 60.0 mg/mL). Control group of rats (n=2) received an injection of vehicle formulation containing no APi2355.
Animals were assigned to groups by a stratified randomization scheme designed to achieve similar group mean body weights. The animals were acclimated to their designated housing for at least 5 days before the day dosing. All formulations were administered in a single dose by dorsal subcutaneous (SC) injection on day 0. […] Whole blood samples (40-50 μl, by tail nick) were collected from all animals in control group at pre-dose and at 1 h and 1 day post-treatment. Blood was collected into K2EDTA tubes. Tubes were mixed gently after blood collection, chilled and centrifuged at 3000 rpm and 4° C., within 30 minutes upon collection. The resultant plasma was separated, transferred to uniquely labeled polypropylene tubes and frozen at −20° C. Plasma and tissue samples were analyzed for concentration of APi2355 using a qualified analytical procedure for LC/MS/MS.
(§2) Terminal whole blood samples (maximal volume by cardiac stick) and tissues were collected from all animals on day 42 post-treatment. Tissues included tissues from heart, liver, kidney, lung, and injection site skin patches. Additionally, lungs were processed for bronchial lavage samples. Tissue samples were analyzed for APi2355 by LC/MS/MS.

[2] = APi2355 concentrations in various tissues at 42 days post treatment (LC/MS/MS); type: in vivo; settings: male, Sprague Dawley, rat, sc, 2 mg/kg, mean of 6 rats, single SC 2.0 mg/kg in SAIB formulation
Experimental: as §1
Animals were assigned to groups by a stratified randomization scheme designed to achieve similar group mean body weights. The animals were acclimated to their designated housing for at least 5 days before the day dosing. All formulations were administered in a single dose by dorsal subcutaneous (SC) injection on day 0. Whole blood samples (40-50 μl) were collected from all animals in APi2355 treated group at pre-dose and 1 h, 2 h, 4 h, 8 h, 1 day, 2 days, 4 days, 7 days, 10 days, 14 days, 21 days, 29 days, and 35 days post-treatment. Whole blood samples (40-50 μl, by tail nick) were collected from all animals in control group at pre-dose and at 1 h and 1 day post-treatment. Blood was collected into K2EDTA tubes. Tubes were mixed gently after blood collection, chilled and centrifuged at 3000 rpm and 4° C., within 30 minutes upon collection. The resultant plasma was separated, transferred to uniquely labeled polypropylene tubes and frozen at −20° C. Plasma and tissue samples were analyzed for concentration of APi2355 using a qualified analytical procedure for LC/MS/MS.
as §2

[3] = individual rats, single SC 2.0 mg/kg APi2355 in SAIB formulation, 2 mg/kg
[4] = rat plasma, single SC 2.0 mg/kg in SAIB formulation

## CC(=O)N[C@H](C)C(=O)N[C@H](C)C(=O)N[C@@H](CCC(=O)O)C(=O)NCC(=O)N[C@@H](CCCCN)C(=O)N[C@@H](C)C(=O)N[C@@H](CO)C(=O)N[C@@H](Cc1ccccc1)C(=O)N[C@H](C(=O)N[C@H](C(=O)N[C@@H](Cc1ccccc1)C(=O)N[C@H](C(=O)N[C@H](C(=O)N[C@H](C(=O)N[C@@H](CCCCN)C(=O)NCC(=O)N[C@@H](CO)C(=O)N[C@H](C)C(=O)N[C@H](C)C(N)=O)[C@@H](C)O)C(C)C)[C@@H](C)O)[C@@H](C)O)[C@@H](C)O [APi2355, Ac-aaEGKASFTTFTVTKGSaa-NH2] (Ac-[dA][dA]EGKASFTTFTVTKGS[dA][dA]-NH2)
[1]; dose to day 14, rat plasma, single SC 2.0 mg/kg in SAIB formulation
  AUC0-14, Mean: 126 ng·days/mL
[1]; dose to day 22, rat plasma, single SC 2.0 mg/kg in SAIB formulation
  AUC0-22, Mean: 146 ng·days/mL
[1]; extrapolated to infinity (AUClast + Clast/λz), rat plasma, single SC 2.0 mg/kg in SAIB formulation
  AUCinf, Mean: 183 ng·days/mL
[1]; in vivo, apparent plasma clearance, rat, single SC 2.0 mg/kg in SAIB formulation
  CL/F: 6.94 mL/min/kg
[1]; in vivo, apparent volume of distribution, terminal phase, rat, single SC 2.0 mg/kg in SAIB formulation, read-out: Vz/F, Mean
  Vd/F: 133 L/kg
[1]; in vivo, log/linear trapezoidal method, rat plasma, single SC 2.0 mg/kg in SAIB formulation, read-out: AUClast, Mean (converted)
  AUC(0-t): 3940 ng·h/mL
[1]; in vivo, rat plasma, single SC 2.0 mg/kg APi2355 in SAIB formulation
  Cmax: 477 ng/mL
[1]; in vivo, rat plasma, single SC 2.0 mg/kg in SAIB formulation, read-out: Half-life (terminal), Mean (converted)
  half-life: 222 h
[1]; in vivo, rat plasma, single SC 2.0 mg/kg in SAIB formulation, read-out: MRTlast, Mean (converted)
  MRT last: 188 h
[1]; [3]
  APi2355 plasma concentration 1 hr post-treatment: 202.00 ng/mL and 232.90 ng/mL and 109.02 ng/mL and 101.53 ng/mL and 84.70 ng/mL and 557.93 ng/mL
  APi2355 plasma concentration 2 hr post-treatment: 884.98 ng/mL and 111.43 ng/mL and 37.62 ng/mL and 317.55 ng/mL and 539.82 ng/mL and 497.89 ng/mL
  APi2355 plasma concentration 4 hr post-treatment: 26.95 ng/mL and 102.25 ng/mL and 328.27 ng/mL and 164.91 ng/mL and 97.42 ng/mL and 52.01 ng/mL
  APi2355 plasma concentration 8 hr post-treatment: 23.90 ng/mL and 54.20 ng/mL and 80.69 ng/mL and 75.60 ng/mL and 47.06 ng/mL and 39.24 ng/mL
  APi2355 plasma concentration 1 day post-treatment: 10.32 ng/mL and 11.86 ng/mL and 20.55 ng/mL and 12.72 ng/mL and 19.85 ng/mL and 25.11 ng/mL
  APi2355 plasma concentration 2 day post-treatment: 6.13 ng/mL and 3.87 ng/mL and 2.54 ng/mL and 8.72 ng/mL and 14.40 ng/mL and 6.90 ng/mL
  APi2355 plasma concentration 4 day post-treatment: 4.65 ng/mL and 3.40 ng/mL and 1.29 ng/mL and 2.17 ng/mL and 1.84 ng/mL and 1.41 ng/mL
  APi2355 plasma concentration 7 day post-treatment: 15.91 ng/mL and 5.07 ng/mL and 2.40 ng/mL and 2.14 ng/mL and 5.18 ng/mL and 1.44 ng/mL
  APi2355 plasma concentration 10 day post-treatment: 2.09 ng/mL and 2.04 ng/mL and 10.43 ng/mL and 5.54 ng/mL and 2.38 ng/mL and 1.58 ng/mL
  APi2355 plasma concentration 14 day post-treatment: 1.66 ng/mL and 1.24 ng/mL and 7.00 ng/mL and 1.83 ng/mL and 1.64 ng/mL and 3.04 ng/mL
  APi2355 plasma concentration 22 day post-treatment: 1.68 ng/mL and 1.87 ng/mL and 2.49 ng/mL and 5.68 ng/mL and 1.98 ng/mL and 1.93 ng/mL
  APi2355 plasma concentration 29 day post-treatment: 0.98 ng/mL and 0.50 ng/mL and 0.85 ng/mL and 0.65 ng/mL and 0.58 ng/mL and 0.16 ng/mL
  APi2355 plasma concentration 35 day post-treatment: 0.81 ng/mL and 1.13 ng/mL and 0.78 ng/mL and 0.10 ng/mL and 0.72 ng/mL and 4.20 ng/mL
  APi2355 plasma concentration 42 day post-treatment: 0.88 ng/mL and 0.29 ng/mL and 0.15 ng/mL and 0.00 ng/mL (2×) and 0.04 ng/mL
[1]; last measurable concentration, rat plasma, single SC 2.0 mg/kg in SAIB formulation
  Clast, Mean: 0.942 ng/mL
[1]; male, Sprague Dawley, rat, plasma, mean of 6 rats, single SC 2.0 mg/kg APi2355 in SAIB formulation, read-out: APi2355 plasma concentration 1 hr post-treatment, Mean
  level at 1 h: 215 ng/mL
[1]; male, Sprague Dawley, rat, plasma, mean of 6 rats, single SC 2.0 mg/kg APi2355 in SAIB formulation, read-out: APi2355 plasma concentration 2 hr post-treatment, Mean
  level at 2 h: 398 ng/mL
[1]; male, Sprague Dawley, rat, plasma, mean of 6 rats, single SC 2.0 mg/kg APi2355 in SAIB formulation, read-out: APi2355 plasma concentration 4 hr post-treatment, Mean
  level at 4 h: 129 ng/mL
[1]; male, Sprague Dawley, rat, plasma, mean of 6 rats, single SC 2.0 mg/kg APi2355 in SAIB formulation, read-out: APi2355 plasma concentration 8 hr post-treatment, Mean
  level at 8 h: 53.5 ng/mL
[1]; male, Sprague Dawley, rat, plasma, mean of 6 rats, single SC 2.0 mg/kg APi2355 in SAIB formulation, read-out: APi2355 plasma concentration 1 day post-treatment, Mean
  level at 24 h: 16.7 ng/mL
[1]; male, Sprague Dawley, rat, plasma, mean of 6 rats, single SC 2.0 mg/kg APi2355 in SAIB formulation, read-out: APi2355 plasma concentration 2 day post-treatment, Mean
  level at 48 h: 7.09 ng/mL
[1]; male, Sprague Dawley, rat, plasma, mean of 6 rats, single SC 2.0 mg/kg APi2355 in SAIB formulation, read-out: APi2355 plasma concentration 4 day post-treatment, Mean
  level at 96 h: 2.46 ng/mL
[1]; male, Sprague Dawley, rat, plasma, mean of 6 rats, single SC 2.0 mg/kg APi2355 in SAIB formulation, read-out: APi2355 plasma concentration 7 day post-treatment, Mean
  level at 168 h: 5.36 ng/mL
[1]; male, Sprague Dawley, rat, plasma, mean of 6 rats, single SC 2.0 mg/kg APi2355 in SAIB formulation, read-out: APi2355 plasma concentration 10 day post-treatment, Mean
  level at 240 h: 4.01 ng/mL
[1]; male, Sprague Dawley, rat, plasma, mean of 6 rats, single SC 2.0 mg/kg APi2355 in SAIB formulation, read-out: APi2355 plasma concentration 14 day post-treatment, Mean
  level at 336 h: 2.73 ng/mL
[1]; male, Sprague Dawley, rat, plasma, mean of 6 rats, single SC 2.0 mg/kg APi2355 in SAIB formulation, read-out: APi2355 plasma concentration 22 day post-treatment, Mean
  level at 528 h: 2.61 ng/mL
[1]; male, Sprague Dawley, rat, plasma, mean of 6 rats, single SC 2.0 mg/kg APi2355 in SAIB formulation, read-out: APi2355 plasma concentration 29 day post-treatment, Mean
  level at 696 h: 0.62 ng/mL
[1]; male, Sprague Dawley, rat, plasma, mean of 6 rats, single SC 2.0 mg/kg APi2355 in SAIB formulation, read-out: APi2355 plasma concentration 35 day post-treatment, Mean
  level at 840 h: 1.29 ng/mL
[1]; male, Sprague Dawley, rat, plasma, mean of 6 rats, single SC 2.0 mg/kg APi2355 in SAIB formulation, read-out: APi2355 plasma concentration 42 day post-treatment, Mean
  level at 1008 h: 0.23 ng/mL
[1]; number of rats, single SC 2.0 mg/kg in SAIB formulation
  APi2355 detectable in the plasma following administration: 4 out of 6
[1]; [4]
  % AUC Extrap, Mean: 9.00%
  extrapolated AUC of AUCinf: < 20%
  fraction of the total exposure of APi2355 occurring in the first 3 weeks after SC administration: Approximately ⅔
[1]; rat, in vivo, 2 mg/kg, rat plasma, single SC 2.0 mg/kg APi2355 in SAIB formulation, read-out: Tmax, Mean (converted)
  Tmax: 1.99 h
[1]; rat, in vivo, 2 mg/kg, rat plasma, single SC 2.0 mg/kg APi2355 in SAIB formulation, read-out: Tmax, median (converted)
  Tmax: 1.99 h
[1]; time of last quantifiable concentration, rat plasma, single SC 2.0 mg/kg in SAIB formulation
  Tlast, Mean: 39.7 days
[2]; bronchoalveolar lavage fluid (BALF), read-out: Concentration in BALF (bronchoalveolar lavage fluid), Mean
  level at 1008 h: 0.99 ng/mL
[2]; heart, read-out: Concentration in Heart, Mean
  tissue level at time at 1008 h: 12.1 ng/g
[2]; injection site skin, injection site skin, read-out: Concentration in Skin, Mean
  tissue level at time at 1008 h: 4.95 ng/g
[2]; kidney, read-out: Concentration in Kidney, Mean
  tissue level at time at 1008 h: 53.2 ng/g
[2]; liver, read-out: Concentration in Liver, Mean
  tissue level at time at 1008 h: 1.23 ng/g
[2]; lung, read-out: Concentration in Lung, Mean
  tissue level at time at 1008 h: 68 ng/g
